assay: gradient 5% acetonitrile 3 min, to 50% in 2 min, to 85% in 15 min, held 3 min, 100 µL/min; settings: column: Zorbax Extend-C18 2.1 x 50 mm; eluents: water / acetonitrile, 0.1% formic acid
Summary of the method: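 Retention time was recorded from adduct peaks, which were picked computationally and each inspected manually. Pure standards ran in mixtures of ~100 molecules on HPLC coupled to a quadrupole time-of-flight mass spectrometer, in positive and negative ionization mode, through a Zorbax Extend-C18 column (2.1 × 50 mm, 1.8 μm) at 100 μL/min. Eluents were water and acetonitrile, each with 0.1% formic acid.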

Row | Compound | RP-LC retention time [s]
1 | CC(C)NC(=O)CCNc1c(-c2ccc(F)cc2)nc2cnccn12 | 616
2 | CC(C)NC(=O)C1CCCN(c2nc3ncn(CC(=O)N4CCc5ccccc5C4)c(=O)c3s2)C1 (stereo unspecified) | 723
3 | O=C(c1cn(-c2cc(N3CCCCC3)ncn2)cn1)N1CCC2(CC1)OCCO2 | 750
4 | Cn1nc(CNC(=O)CNC(=O)Cc2ccc(Cl)cc2)c2ccccc21 | 742
5 | CC1(C(=O)NCc2ccccc2Cl)Cn2cnc(C(=O)NCc3ccccc3)c2C(=O)N1C1CC1 (stereo unspecified) | 789
6 | CC(=O)N1CCCc2cc(S(=O)(=O)N3CCC(C(=O)NCc4ccccn4)CC3)ccc21 | 607
7 | CCOc1ccc(CC(=O)N2CCN(Cc3nc(C)cs3)CC2)cc1 | 586
8 | O=C(c1ccc(F)c(F)c1)N1CCOC(c2ccccc2)C1 (stereo unspecified) | 845
9 | CC(C)NC(=O)N(C1CCOCC1)C1CN(C(=O)c2cncc(Br)c2)C1 | 604
10 | CCOCCCNC(=O)N1CCN(Cc2nc3cccnc3n2-c2cc(C)cc(C)c2)CC1 | 653
11 | CC(NC(=O)c1ccco1)C(=O)NCc1nn(C(C)C)c2ccccc12 (stereo unspecified) | 712
12 | CC1=C(C(=O)N2CC(c3noc(COc4ccc(C)cc4)n3)C2)C2(CCCCC2)OC1=O | 1010
13 | CCCn1c(=O)c2c(ncn2C)n(CCC)c1=O | 785
14 | O=C(Nc1cccc(-c2nnc3n2CCCC3)c1)C1CC1 | 601
15 | COC(=O)c1c(NCCc2ccccc2)c2cc(F)ccc2[nH]c1=O | 791
16 | COc1ccccc1N1CCN(c2cc(SCC(=O)NC3CCCCC3)ncn2)CC1 | 875
17 | CC(C)CNC(=O)c1nnc(-c2ccc(S(=O)(=O)N(C)C)cc2)o1 | 787

Row | Compound | RP-LC retention time [s]
18 | Cn1nc(C(=O)NCc2ccc(F)cc2)c2c1CCN(C(=O)c1ccc(Br)o1)C2 | 790
19 | O=C(c1ccc(OCC2CCN(C(=O)c3ccsc3)CC2)cc1)N1CCOCC1 | 678
20 | COc1ccccc1NC(=O)N1CCC2(CC1)NC(=O)c1ccc(F)cc1N2C | 745
21 | CCOc1ccc(C(=O)Nc2cccn3nc(C(C)C)nc23)cc1 | 964
22 | CN(C)S(=O)(=O)c1ccc(C(=O)N2CCC3(CC2)OCCS3)cc1 | 724
23 | COc1ccc(-c2nnc(CC(=O)N3CCC4(CC3)OCCO4)o2)cc1 | 681
24 | Cc1cccc(CNC(=O)c2cc(N(C)C)n3nccc3n2)c1 | 840
25 | COc1ccc(S(=O)(=O)Nc2cc(-c3cn4cccc(C)c4n3)ccc2C)cc1OC | 662
26 | CN(C)C(CNC(=O)c1cc(-c2ccc3c(c2)OCCO3)on1)c1ccc(F)cc1 (stereo unspecified) | 681
27 | COc1ccc(C2CC(=O)N(c3ccc(C)cc3)C(=O)C2)cc1OC | 831
28 | O=C(NCCn1c(=O)n(Cc2ccc(F)cc2)c2cccnc21)c1ccoc1 | 745
29 | O=C(Nc1ccc(F)cc1F)C1CC(=O)N(CCc2c[nH]c3ccc(F)cc23)C1 (stereo unspecified) | 784
30 | O=C(Cn1cnc2ccccc2c1=O)N1CCC(c2nnc(-c3ccco3)s2)CC1 | 643
31 | CN(CCc1noc(-c2ccc(C(=O)N3CCN(c4ccccn4)CC3)cc2)n1)C(=O)c1ccccc1 | 625
32 | Cc1ccc(NC(=O)Cn2cnc3nc(N4CCCC(C(=O)NC(C)C)C4)sc3c2=O)c(C)c1 (stereo unspecified) | 710
33 | O=C(c1ccc(Cl)s1)N1CCCCC1c1nncn1CC1CC1 (stereo unspecified) | 800

Second part, the compound after the results:

Row | RP-LC retention time [s] | Compound
34 | 1030 | CCOc1ccc(-c2noc(CN3N=NC4C(=O)N(c5ccc(CC)cc5)C(=O)C43)n2)cc1OC (stereo unspecified)
35 | 826 | CCOC(=O)C1CCN(C(=O)c2nnc(-c3ccc(S(=O)(=O)N4CCOCC4)cc3)o2)CC1
36 | 870 | COc1ccccc1NC(=O)NC1CCN(c2ccc(C)c(C)c2)C1=O (stereo unspecified)
37 | 649 | O=C(Cn1cnc2nc(N3CCC(C(=O)NC4CC4)CC3)sc2c1=O)NC1CCCCC1
38 | 690 | CC(=O)N1CCc2cc(N3CC(C(=O)Nc4ccccc4F)CC3=O)ccc21 (stereo unspecified)
39 | 1100 | COc1ccc(N2CCN(c3cc(SCC(=O)Nc4ccc(C)c(Cl)c4)ncn3)CC2)cc1
40 | 738 | COc1ccc(-c2ccnn2-c2ccc(SCc3ccc(F)cc3)nn2)cc1
41 | 1050 | Cc1ccc(-c2nnc(Cc3nc(-c4ccc(F)cc4)no3)o2)cc1
42 | 896 | CSc1ccc(-c2nc3cc(C)ccn3c2NC2CCCCC2)cc1
43 | 954 | O=C(c1csc(N2CCN(c3ccc(F)cc3)CC2)n1)N1CCOCC1
44 | 956 | O=C(C(Cl)Cl)N1CC2CCC(CC2)C1
45 | 1120 | CCc1ccc(-n2ncc3c(=O)n(Cc4nc(-c5ccc(OC)cc5)no4)cnc32)cc1
46 | 975 | Cc1nc(-c2csc(S(=O)(=O)N3CCCC(C(=O)Nc4ccccc4Cl)C3)c2)no1 (stereo unspecified)
47 | 637 | Nc1nc(SCC(=O)Nc2cccc(C(F)(F)F)c2)n[nH]1
48 | 883 | CCCCN(C)c1nc(-c2ccc([N+](=O)[O-])cc2)nc2ccccc12
49 | 838 | O=C(C1=CN(c2cccc(F)c2)c2cc(Cl)ccc2S1(=O)=O)N1CCCC1
50 | 764 | O=C(CCCn1nc(-c2ccccc2)c2cc(Cl)ccc21)N1CCN(c2ccccn2)CC1

Row | RP-LC retention time [s] | Compound
51 | 931 | COC(=O)c1onc(C(=O)c2ccccc2)c1C(=O)OC
52 | 1130 | CCc1noc(NC(C)=O)c1-c1ccc(C)c(S(=O)(=O)N2CCN(c3cc(C)ccc3C)CC2)c1
53 | 984 | O=C(NCCc1csc(-c2ccccc2)n1)C1CCN(S(=O)(=O)c2ccc(Cl)cc2)CC1
54 | 753 | CCc1cc(-c2csc(S(=O)(=O)N3CCN(Cc4ccc5c(c4)OCO5)CC3)c2)on1
55 | 812 | Cc1ccc(CNc2c(-c3ccc(C)cc3)nc3ncccn23)cc1
56 | 956 | O=c1n(Cc2ccc(F)cc2)nc2c(S(=O)(=O)N3CCCCCC3)cccn12
57 | 753 | Cc1cc(S(=O)(=O)N2C[C@H](F)C[C@@H]2C(=O)N2CCOCC2)ccc1Cl
58 | 798 | COCCCNC(=O)NC(C(=O)N1CCc2ccccc21)c1ccccc1 (stereo unspecified)
59 | 842 | CC(C)n1cnc(S(=O)(=O)N2CCCC(C(=O)Nc3cccc(Cl)c3)C2)c1 (stereo unspecified)
60 | 557 | c1ccc(-c2noc(C3CNC3)n2)cc1
61 | 617 | Cc1c2cnn(-c3ccccc3)c(=O)c2c(C)n1C(C)C(=O)NCCN1CCCC1 (stereo unspecified)
62 | 987 | COc1ccc(-c2ncc3c(n2)CCN(C(=O)Cc2ccc(OC)cc2Cl)C3)cc1
63 | 804 | CCn1cc(S(=O)(=O)N2CCCCC2CCn2cc(-c3ccccc3)nn2)cn1 (stereo unspecified)
64 | 1090 | Cc1ccccc1N1CCN(S(=O)(=O)c2cc(-c3nnc(C4CC4)o3)co2)CC1
65 | 573 | CN(C)[C@@H]1CN(C(=O)CCc2c[nH]c3ccccc23)C[C@H]1CO
66 | 632 | Cn1nc(N2CCC(NC(=O)Cc3c[nH]c4ccccc34)C2)ccc1=O (stereo unspecified)
